Literature values in patent US20230023032A1, “SUSTAINED RELEASE COMPOSITIONS COMPRISING LIOTHYRONINE” (Amneal Complex Products Research LLC, priority 2020, published 2023).

Settings: administered in an immediate release form

half-life: about 10 hours
Compound: N[C@@H](Cc1cc(I)c(Oc2ccc(O)c(I)c2)c(I)c1)C(=O)O [liothyronine]
